Laboratory results taken from US20250339520A1, “COMPOSITIONS AND METHODS FOR USE IN KRAS-TARGETED THERAPIES FOR THE TREATMENT OF CANCER” (RUTGERS, THE STATE UNIVERSITY OF NEW JERSEY, priority 2024, published 2025).
Blank lines part the entries; values can stand above or below the compound they belong to.

Tests used:
iKPC PDAC cells [1] = assay: Cancer spheroid formation, TGFβ-driven KRAS* bypass; assay type: cell-based, mouse
Experimental: (§1) Human cell lines MIA PaCa-2 and Panc 04.03 were purchased from the American Type Culture Collection (ATCC) and cultured in DMEM supplemented with 10% FBS and RPMI supplemented with 15% FBS and 20 Units/ml human recombinant insulin, respectively. Mouse PDAC cells were isolated from spontaneous tumors developed in iKPC or KPC mice. KPC cell lines were sustained in RPMI (Gibco) with 10% FBS (Gibco), while iKPC cell lines were cultured in RPMI with 10% Tet-approved FBS (Gibco) and doxycycline (VWR, […]). Escaper tumor cell lines were maintained in RPMI with 10% Tet-approved FBS (Gibco). For cancer spheroid culture, cells were mixed with 50 L growth factor-reduced Matrigel (Corning) and plated in 24-well low-attachment cell culture plates (Nunc). Medium was added on top of the solidified Matrigel. We monitored both spheroid size and number for spheroid growth assays. For counting spheroid numbers, we used a cut-off of 100 m in diameter or specified, depending on the time and cell type. For measuring spheroid size, ImageJ was used. Monthly mycoplasma detection (Lonza) was performed to ensure the absence of contamination.

NFAT5 = assay: Western blot of NFAT5 expression under KRN2; assay type: cell-based; conditions: PDAC cells, dose-dependent western blot
Experimental: (§2) Antibody information can be found in Table 2. Western blot analysis, IP, co-IP, and IHC staining were conducted following standard protocols. Human TMA slides were purchased from Biomax. Cell fractionation and Masson's Trichrome Staining were carried out using commercial kits, adhering to manufacturers' protocols. MS analysis of proteins pulled down by endogenous SMAD2, SMAD3, SMAD4, NFAT5, and IgG was performed by the Proteomics Core Facility at Rutgers New Jersey Medical School. Specifically, IP samples were subjected to SDS-PAGE separation. Each sample's gel lane was excised for in-gel trypsin digestion, and the resulting peptides were analyzed using LC-MS/MS on an Orbitrap Fusion Lumos Tribrid mass spectrometer coupled with the Ultimate 3000 nano-LC system (Thermo Scientific). MS/MS spectra were searched against the UniProt mouse database (55,336 sequences, downloaded 8/30/2021) using the Sequest search engine through the Proteome Discoverer platform (version 2.4) with a false discovery rate less than 1% for both proteins and peptides. Protein abundance ratios were determined using the Label-Free Quantitation (LFQ) method.

[2] = test system: KPC [1860], Mia PaCa-2, and Panc 04.03 PDAC cells; assay: Cancer spheroid formation under KRASi; assay type: cell-based, mouse and human
Experimental: as §1

[3] = test system: KRAS*-independent escaper tumor cells E725; assay: Escaper tumor growth, E725 cells subcutaneous in nude mice; assay type: in vivo, mouse; conditions: KRN2 3 mg/kg QD vs vehicle; day 28
Excerpt: (§3) For allograft or xenograft tumor models, human or mouse PDAC cells were transplanted orthotopically or subcutaneously into recipient C57BL/6 or nude mice at a concentration of 500,000 cells per injection, as specified in the figures. The cells were resuspended in Opti-MEM and combined with growth factor-reduced Matrigel (Corning) at a 1:1 ratio.

iKPC spheroids [4] = assay: RNA-seq / GSEA in TGFβ-treated, KRAS*-depleted iKPC spheroids; assay type: cell-based, mouse; conditions: inhibition of NFAT5 by KRN2
Experimental: (§4) RNA extraction from 2-D or 3-D cultured cell samples was conducted using the RNA Extraction Kit from Qiagen. Matrigel-based 3-D cells were isolated using Cell Recovery Solution from Corning. RNA concentration was assessed using NanoDrop 2000. The RNA samples were either sent for RNA-seq analysis to the Genomic Center at Rutgers or Genewiz (Azenta), or reverse transcribed for qRT-PCR analysis. The preparation of cDNA utilized 5× All-In-One RT MasterMix from Applied Biological Materials, and the PCR reactions were prepared with SYBR Green PCR Master Mix from Applied Biosystems or Bio-Rad. qRT-PCR was executed on the CFX Opus 96 (Bio-Rad), with statistical analysis conducted using GraphPad Prism. For mRNA sequencing, the parameters were NGS-75 nt Paired End, utilizing the Illumina Next Generation Sequencing instrument.
GSEA was performed using GSEA software (4.3.2).

AsPC-1 = assay: Cancer spheroid formation under KRASi, SMAD4-deficient cells; assay type: cell-based, human; conditions: for Response of spheroid formation to TGFβ1 or TGFβRi: SMAD4-deficient, under G12Di MRTX1133, TGFβ 0.5 ng/ml, SB505124 1 μM
KPC PDAC cells [5] = assay: Orthotopically transplanted KPC PDAC model with pancreatitis induction; assay type: in vivo, mouse
Experimental: as §3
(§5) For bioluminescence imaging, each mouse received a 100 L injection of D-Luciferin (15 mg/mL, i.p., Perkin Elmer). After a 10-minute interval, mice were imaged using the IVIS Spectrum Imaging System, and images were acquired and analyzed using Living Image 4.3 software.

MIA PaCa-2 = MIA PaCa-2 orthotopic xenograft model; assay type: in vivo
Excerpt: as §3

KPC PDAC cells [6] = assay: KPC transplanted (allograft) model, KRN2 and MRTX1133; assay type: in vivo
Experimental: as §3, §5

S100a4 promoter = assay: Luciferase reporter assay under the S100a4 promoter; assay type: cell-based, mouse; conditions: KRAS*-depleted iKPC PDAC cells
Experimental: Mouse S100a4 promoter was cloned into pGL4.12[iluc2CP] vector (Promega). Renilla luciferase vector (Promega) was used as the internal control. pGL4.12 vector and Renilla luciferase vector were co-transfected into iKPC PDAC cells using Lipofectamine 2000 (Invitrogen). After 24 hours, the medium was replaced, and cells were subjected to various treatments for an additional 24 hours. Subsequently, cells were collected for luciferase reporter assay using the Dual-Luciferase Reporter Assay Kit (Promega) according to the manufacturer's instructions. The firefly luciferase signal was normalized to Renilla luciferase prior to comparison among different treatment groups.

iKPC PDAC cells [7] = assay: Gene expression changes in iKPC cells post TGFβ treatment; assay type: cell-based, mouse
Experimental: as §4

iKPC spheroids [8] = assay: Western blot of S100A4, NFAT5 and EMT TFs in iKPC cells/spheroids; assay type: cell-based, mouse; conditions: TGFβ
Experimental: as §2

iKPC mice = assay: Pancreatitis-induced spontaneous tumor relapse in iKPC mice; assay type: in vivo, mouse; conditions: CAE 100 μg/kg after dox withdrawal (KRAS* off); less than or around a year after treatment; control mice remained tumor-free
Experimental: The iKPC and KPC PDAC mouse models were established and described previously^7,19. They were bred in pure C57BL/6 background. Doxycycline (dox) water (2 mg/mL, ad libitum) was administrated at 4-6 weeks of mouse age to activate transgenic KRAS^G12D expression in iKPC mice. The C57BL/6 mice and nude mice of both sexes were purchased from the Jackson Laboratory and employed to ensure matching sexes of the cell lines.
For the induction of spontaneous tumor relapse in iKPC mice, the withdrawal of dox water was performed to cease KRAS* expression when the tumor diameter reached approximately 1 cm.

[9] = test system: KRAS*-independent escaper tumor cell lines from iKPC mice; assay: KRAS*-independent escaper spheroid growth; assay type: cell-based, mouse; conditions: SB505124 3 μM; hybrid or QM-like phenotype
Experimental: as §1

Compound: recombinant S100A4 protein: recombinant mouse S100A4 (R&D) added to the culture media
- Rescue of TGFβ-induced, KRAS*-independent cancer spheroid growth (iKPC PDAC cells [1]; added to culture media after NFAT5 inhibition (KRN2 1 μM) or knockdown of Nfat5 or S100a4): rescued TGFβ-induced, KRAS*-independent cancer spheroid growth

Compound: COc1ccc2c(Cc3ccccc3F)c3[n+](cc2c1OC)CCc1cc2c(cc1-3)OCO2.[Cl-] [KRN2]
- Concentration at which Nfat5 expression is suppressed (NFAT5): higher than 0.3 μM
- KRASi persistent cancer spheroid formation ([2]; KRN2 1 μM + MRTX1133 0.03 μM (KPC), KRN2 0.3 μM + ARS-1620 5 μM (MIA PaCa-2)): attenuation of KRASi persistent cancer spheroid formation
- Escaper tumor growth in vivo [3]: restriction of escaper tumor growth in vivo
- Gene sets upregulated (GSEA) (iKPC spheroids [4]): upregulating genes associated with fatty acid metabolism and mTORC1 signaling
- Gene signatures suppressed (GSEA) (iKPC spheroids [4]): suppressed EMT and NFxB gene signatures
- KRASi persistent cancer spheroid formation, SMAD4-deficient cells (AsPC-1; KRN2 0.3 μM + MRTX1133 0.3 μM): excluding SMAD4-deficient cancer spheroid formation
- TGFβ-driven KRAS* bypass (spheroid formation) (iKPC PDAC cells [1]; KRN2 1 μM, TGFβ 0.5 ng/ml, three iKPC cell lines): impairment of TGFβ-driven KRAS* bypass
- Chronic pancreatitis-induced KRASi resistance (KPC PDAC cells [5]; MRTX1133 10 mg/kg BID + CAE 100 μg/kg + KRN2 3 mg/kg QD, KPC 1860, day 21): blockage of chronic pancreatitis-induced KRASi resistance
- Human xenograft tumor growth (MIA PaCa-2; KRN2 3 mg/kg QD with G12Ci MRTX849 100 mg/kg QD, day 28): reduction of human xenograft tumor growth cooperatively with KRASi
- Systemic toxicity (mouse body weight) (MIA PaCa-2; xenograft model, during treatment): minimal systemic toxicities
- Mouse allograft tumor growth (KPC PDAC cells [6]; KRN2 3 mg/kg QD in combination with MRTX1133 10 mg/kg QD): inhibition of mouse allograft tumor growth in combination with KRASi
- Mouse survival (KPC PDAC cells [6]; KRN2 monotherapy 3 mg/kg QD, immune-competent mice): prolonged mouse survival
- Tumor differentiation (H&E) (KPC PDAC cells [6]; KRN2 vs vehicle control): induced tumor differentiation
- Systemic toxicity (mouse body weight) (KPC PDAC cells [6]; allograft model, during treatment): minimal systemic toxicities

Compound: C#Cc1c(F)ccc2cc(O)cc(-c3ncc4c(N5CC6CCC(C5)N6)nc(OC[C@@]56CCCN5C[C@H](F)C6)nc4c3F)c12 [MRTX1133]
- Tumor growth under G12Di with pancreatitis induction (KPC PDAC cells [5]; MRTX1133 10 mg/kg BID + CAE 100 μg/kg): leads to resistance
- Tumor growth, G12Di vs vehicle (KPC PDAC cells [5]; MRTX1133 10 mg/kg, BID): significantly reduces tumor growth

- S100a4 promoter luciferase activity under TGFβ (S100a4 promoter): activated S100a expression
Compound: TGFβ1: recombinant human and mouse TGFβ1 (Peprotech)
- Formation of cancer spheroids resistant to KRASi ([2]; TGFβ 0.5 ng/ml with MRTX1133 or ARS-1620, cells with intact TGFβ pathway): actively promoted the formation of cancer spheroids resistant to KRASi
- Response of spheroid formation to TGFβ1 or TGFβRi (AsPC-1): did not exhibit a response
- KRAS* bypass in spheroid assays (iKPC PDAC cells [1]; TGFβ1 treatment, KRAS* off): efficiently promoted several iKPC PDAC cell lines to bypass KRAS*
- KRAS* bypass in spheroid assays, iKPC cell lines 251, 276 (iKPC PDAC cells [1]; TGFβ1 treatment, cell lines with higher Cdkn2a and Cdkn2b expression): unable to bypass KRAS*
- Ccl2 expression elevation (iKPC PDAC cells [7]; TGFβ treatment, KRAS*-depleted iKPC PDAC cells): more than 700 fold
- S100a4 expression (iKPC PDAC cells [7]; TGFβ, KRAS*-depleted iKPC spheroids): upregulated
- NFAT5 protein level (iKPC spheroids [8]): upregulates NFAT5
- S100A4 protein level (iKPC spheroids [8]; cancer spheroids): upregulation of S100A4

Compound: caerulein
- CAE-treated mice that developed escaper tumors (iKPC mice): at least 36%
- Tumor growth, CAE vs vehicle control (KPC PDAC cells [5]; CAE 100 μg/kg, C57BL/6 mice, BLI, tumor weight, tumor volume): promotes KPC PDAC tumor growth
- Tumor morphology (H&E) (KPC PDAC cells [5]; CAE;G12Di-treated tumors relative to vehicle;G12Di controls): lost the ductal-like phenotype and were more undifferentiated
- Tumor progression, CAE;G12Di vs vehicle;G12Di (KPC PDAC cells [5]; independent study, MRTX1133 10 mg/kg BID, CAE 100 μg/kg): significantly faster tumor progression
- SMAD3 phosphorylation and EMT transcription factors in collected tumors (western blot) (KPC PDAC cells [5]; tumors under MRTX1133): induced SMAD3 phosphorylation and the upregulation of EMT transcription factors (TFs) such as SNAI2, ZEB1, and ZEB2

Compound: Cc1cccc(-c2[nH]c(C(C)(C)C)nc2-c2ccc3c(c2)OCO3)n1 [SB505124]
- Cancer spheroid formation, TGFβRi combined with KRASi ([2]; SB505124 3 μM with MRTX1133 (KPC, Panc 04.03) or ARS-1620 (MIA PaCa-2)): eradication of cancer spheroids
- Sensitivity of escaper spheroids to TGFβRi [9]: hypersensitivity
- Response of spheroid formation to TGFβ1 or TGFβRi (AsPC-1): did not exhibit a response
